“Also recorded” adds a separate entry of the source.
Legend:
[1] = test system: Musca domestica (adult); assay: Adult flies in spray-treated Petri dishes, surviving flies counted; type: in vivo; details: 10 adult flies per pre-treated dish; RB 86 6%, Bionim 0.4%, potassium oleate 5% concentration
Description: (§1) As RB 86™ needs an emulsifier for dissolving this emulsifier was also tested. All tests were reiterated, making a total of five times for each. Throughout the study, houseflies (Musca domestica) of a laboratory strain (772a) obtained from Statens Skadedyrslaboratorium, Lyngby, Denmark, was used. Standard medium for culturing larvae consisted of baker's yeast, mill: powder, water and wheat bran.
Test vessels were Petri dishes made of glass with a diameter of 9 cm. With the help of a spraying bottle the bottoms of the vessels were treated with each of the compositions a)-f). After transferring 10 adult flies to each of the pre-treated dishes, the dishes were covered with plastic film and the registration started. Observations were performed by counting the surviving flies at the start, after 5 minutes and subsequently every 10th minute up to a total of 60 minutes. Two further observations were made after 1.5 and 2 hours from the start, respectively.

[2] = test system: Musca domestica (larvae); assay: Larvae in culture medium with the composition, surviving larvae counted; type: in vivo; details: six days old larvae, 24° C., observed up to 36 hours
Description: as §1
Six days old larvae were placed in 1.5 litre plastic vessels (Cerbo™) containing 40 g culture medium and the respective composition a)-f). The vessels were placed in a climate room (24° C., RH %=75%±10%). Observations were performed whereby the number surviving larvae were registrated after 2, 5, 12, 24 and 36 hours.

[3] = test system: M. domestica spiracle opening bristles; assay: Effects on flies studied in scanning electron microscope; type: in vivo, Musca domestica; details: adult flies; Bionim 0.4%, potassium oleate 5%, Blidol 0.02%; SEM
Text: A scanning electron microscope (SEM) was used to microscope adult flies treated with:
whereby morphological changes could be detected. These flies were photographed and compared with normal flies.
Morphological changes could be detected on the spiracle opening on the middle part of the body. Bristles (see FIG. 12) surround this breathing hole. […] Apparently these last mentioned effects are present when using the other compositions.

[4] = test system: fleas; assay: Flea control on dogs; type: in vivo
Description: 15 dogs infested with fleas were treated with oleate. The oleate was sprayed from pump bottles. At the first treatment the dogs were sprayed with oleate in the groins, armpits and head/neck. At the second treatment, twenty-four hours later, the dogs were sprayed only in the armpits and behind the ears.

CCCCCCCC/C=C\CCCCCCCC(=O)[O-].[K+] [Potassium oleate]
time within which all flies were killed [1]: ≤ 5 min | controlling effect on larvae [2]: An effect could however be detected | deformation of bristles around the spiracle opening [3]: The bristles are minimally affected; also recorded: only showed minimal changes | fleas found on dogs ([4]; after the first spray treatment, 15 infested dogs): only one or two fleas were found on some dogs | living fleas found ([4]; forty-eight hours later, after the second treatment): no living flea was found | living fleas found at another check ([4]; four days later): the result was the same
